Data on 1 compound can be found in PMC11026403 (Communications Biology, 2024).

A word on the IC50: it is the concentration that gives 50% inhibition. High values mean weaker potency, low ones greater potency.

The target of the experiment is A/Denmark/524/2009 (H1N1)pdm09 NA-H274 (Influenza A virus, UniProt C3W5S3). The class given is biochemical.

The structures appear in SMILES notation.

For `CCC(CC)[C@H](NC(C)=O)[C@@H]1[C@H](O)[C@@H](C(=O)O)C[C@H]1N=C(N)N` [peramivir], half-maximal inhibition (IC50) required 0.1 nM.
